Article PMC9404946, “Antioxidant Capacities and Enzymatic Inhibitory Effects of Different Solvent Fractions and Major Flavones from Celery Seeds Produced in Different Geographic Areas in China” (Antioxidants, 2022)
Marks after values point to notes of the source that are not given here.

Columns and labels:
[1] = Ferric reducing antioxidant power (FRAP); type: biochemical
Description: The measurement of FRAP was based on previous studies with slight modifications. A total of 180 uL of FRAP working solution (acetate buffer (pH 3.6): ferric chloride solution (20 mM): TPTZ solution (10 mM) = 10:1:1) was mixed with 20 μL of sample solution and incubated for 30 min at room temperature. The absorbance was measured at 593 nm. The standard curve was linear from 0 to 30 μg Trolox with an R^2 value of 0.9999 (Absorbance: y = 0.0943x + 0.0126, Figure S2I). The results are expressed as milligrams of TE/g dry weight.

[2] = ABTS radical scavenging assay; type: biochemical
Description: The ABTS radical scavenging activity of each fraction was measured based on the method with slight modifications. A 28 mM ABTS and a 9.6 mM potassium persulfate working solution were prepared, mixed in equal volumes, and the mixture was left to stand for 16 h at room temperature, protected from light. The working solution was diluted with EtOH to reach an absorbance of 0.70 ± 0.02 at 740 nm and used for further experiments. Different extracts or compounds (20 μL) concentrations were mixed with the working solution (180 μL). The mixture was incubated at room temperature for 15 min, and the absorbance was recorded at 734 nm (As). DMSO and ABTS reagents in the same volume were mixed to measure the absorbance as the control (A0). Then, the antioxidant activity of the mixture was determined by calculating the decrease using the following formula:ABTS radical inhibiting activity (%) = (A0 − As)/A0 × 100, where A0 is the absorbance of the control (untreated group), and As is the absorbance of the test sample. BHT and VC were used as the positive control.

[3] = target: Saccharomyces cerevisiae α-glucosidase; assay: α-Glucosidase inhibitory activity assay (PNPG substrate); type: biochemical; settings: main flavonoids and acarbose (Table 5)
From the text: (§1) Butylated hydroxytoluene (BHT) and ethylene diamine tetraacetic acid (EDTA) were purchased from Sigma-Aldrich (Shanghai, China). […] Methanol (MeOH), ethanol (EtOH), and dichloromethane (DCM) were purchased from Tianjin Fuyu (Tianjin, China). Ammonium acetate (NH4Ac), iodine (I2), potassium iodide (KI), soluble-starch, acetic acid (AcOH), n-butanol (nBuOH), and silica sand were obtained from Guoyao (Shanghai, China). The products were purified by flash column chromatography on 200–300 mesh silica gel purchased from Xinnuo Huagong (Yantai, Shandong, China). Methanol and acetonitrile of the high-performance liquid chromatography (HPLC) grade were purchased from Thermo Fisher Scientific (Waltham, MA, USA). DMSO-D6 was purchased from J&K (Beijing, China).
The α-glucosidase inhibition test was performed as previously described with some variations. PBS (0.1 M, pH = 6.8), α-glucosidase (5 U/mL), and PNPG (5 mM) were prepared and stored at 4 °C for further use. In total, 20 μL of different concentration sample solution (DMSO dissolved) or DMSO, 60 μL of PBS, and 20 μL of α-Glucosidase (0.5 U/mL) were added to a 96-well plate and incubated for 20 min at 37 °C. Then, 20 μL of PNPG (5 mM) solution was added and incubated for another 15 min at 37 °C. Subsequently, 80 μL of Na2CO3 (0.1 M) solution was added to terminate the reaction. […] Inhibition (%) was calculated based on absorbance with the following formula: Inhibitor (%) = (A0 − As)/A0 × 100%, where A0 is the absorbance of the blank group, and As is the absorbance of the test group. The IC50 values were calculated using GraphPad Prism 8.0 (GraphPad Software, Inc., La Jolla, CA, USA) to evaluate the α-glucosidase inhibition activity of the tested compounds.

[4] = Metal chelating activity on ferrous ions (ferrozine); type: biochemical; settings: for Metal Chelating: main flavonoids (Table 5)
Description: The iron-chelating activity of each fraction was estimated by the method described by Sapatinha et al. with modifications. Briefly, 50 μL of each sample solution and 50 μL of 1 mM FeCl2 were mixed. Then, the reaction was initiated by adding 100 μL of 2.5 mM ferrozine solution. The mixture was kept at room temperature for 10 min. The absorbance of the resulting solution was measured at 562 nm. The results are expressed as milligrams of ethylenediaminetetraacetic acid (EDTA) equivalent per gram of extract (mg EDTAE/g extract) (calibration curve from different concentrations: 0–55 μg/mL; Absorbance: y = −0.0477x + 3.0616, R² = 0.9966, Figure S2K).

[5] = Cupric reducing antioxidant capacity (CUPRAC); type: biochemical; settings: main flavonoids (Table 5)
Description: The cupric ion reducing antioxidant capacity (CUPRAC) was measured according to the method of Drouet et al. with modifications. Briefly, 50 μL of the extract sample was mixed with 150 μL of the CUPRAC solution (composed of 10 mM CuCl2, 7.5 mM neocuproine, and 1 M NH4Ac buffer pH 7; ratio 1:1:1 (v/v/v)). After incubation for 15 min at room temperature, the absorbance value at 450 nm of the reaction mixture was measured. The results were reported as […] of Trolox equivalents (TE) per gram of extract (mg TE/g extract) (calibration curve from different concentrations: 0–70 μg/mL; Absorbance: y = 0.0279x + 0.0126, R² = 0.9997, Figure S2J).

[6] = DPPH radical scavenging assay; type: biochemical; settings: main flavonoids and positive controls (Table 5)
Description: The scavenging ability of the free radical DPPH was investigated as described with slight modification. The sample solution (100 μL) and DPPH reagent (0.11 mg/mL, 100 μL) were mixed and incubated (30 min) at room temperature and in darkness. Then, a multi-detection microplate reader was used to measure the absorbance at 517 nm (As). The control group was mixed with DMSO and DPPH reagent in the same volume (A0). A formula was used to calculate the DPPH radical scavenging activity:DPPH radical scavenging activity (%) = [(A0 − As)/A0] × 100, where A0 is the absorbance of the control (untreated group), and As is the absorbance of the test sample. BHT and VC were used as the positive control.

[7] = target: T1, porcine pancreatic α-amylase (Sus scrofa, UniProt P00690); assay: α-Amylase inhibitory activity (starch-iodine); type: biochemical
T1 construct: purchased Shanghai Yuanye Biotechnology Co. (Shanghai, China)
T1 sequence (P00690 16-511): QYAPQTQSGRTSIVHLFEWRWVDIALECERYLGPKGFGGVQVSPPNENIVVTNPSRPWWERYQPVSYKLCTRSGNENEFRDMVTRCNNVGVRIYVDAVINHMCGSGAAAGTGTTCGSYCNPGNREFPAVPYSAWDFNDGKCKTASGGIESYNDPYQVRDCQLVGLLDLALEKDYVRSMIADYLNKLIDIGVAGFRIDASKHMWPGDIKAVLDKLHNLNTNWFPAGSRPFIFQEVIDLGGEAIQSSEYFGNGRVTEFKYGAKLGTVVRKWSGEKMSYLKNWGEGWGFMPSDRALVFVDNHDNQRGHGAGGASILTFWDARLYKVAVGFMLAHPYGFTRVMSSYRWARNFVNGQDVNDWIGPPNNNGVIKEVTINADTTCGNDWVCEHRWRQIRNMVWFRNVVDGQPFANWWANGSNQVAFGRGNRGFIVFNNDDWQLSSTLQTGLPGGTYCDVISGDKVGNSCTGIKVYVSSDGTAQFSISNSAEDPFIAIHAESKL
From the text: as §1

α-amylase = target: α-amylase; parameters: method as in PMID 32344340; settings: previously reported; cited from earlier work
[8] = main flavonoids and positive control (Table 5)
[9] = main flavonoids and positive controls (Table 5)
[10] = solvent fractions and positive control, Trolox equivalent
[11] = solvent fractions and positive controls (Table 3 and text)

SMILES | FRAP [1, 8] | ABTS IC50 [2, 9] | IC50 [3] | Fe2+ chelating capacity [4] | Metal Chelating [4] | CUPRAC [5] | DPPH IC50 [6] | FRAP [1, 10] | ABTS IC50 [2, 11] | IC50 [7] | α-amylase inhibitory activity IC50 (α-amylase)
O=c1cc(-c2ccc(O)cc2)oc2cc(O)cc(O)c12 [Apigenin] | 59.41 ± 0.24 ^h mg TE/g | 223.63 ± 10.35 ^c μg/mL | 80 ± 0.85 µM | 54.20 mg EDTA/g | 54.20 ± 1.28 ^c mg EDTAE/g | 76.44 ± 1.83 ^f mg TE/g | 1292.00 ± 31.00 ^d μM | – | – | – | –
Cc1cc(C(C)(C)C)c(O)c(C(C)(C)C)c1 [BHT, Butylated hydroxytoluene, reference compound] | 406.39 ± 4.65 ^d mg TE/g | 5.72 ± 0.10 ^h,i μg/mL | – | – | – | – | 39.13 ± 0.93 ^g μM | 406.39 mg TE/g | 3.79 ± 0.04 ^l μg/mL | – | –
O=c1cc(-c2ccc(O)c(O)c2)oc2cc(O)cc(O)c12 [Luteolin] | 1025.12 ± 10.78 ^a mg TE/g | 4.58 ± 0.02 ^i,j μg/mL | 58.8 ± 2.97 µM | 88.44 mg EDTA/g | 88.44 ±0.64 ^b mg EDTAE/g | 1502.63 ± 15.92 ^a mg TE/g | 4.65 ± 0.16 ^j μM | – | – | 2110 ± 10 µM | –
COc1cc(-c2cc(=O)c3c(O)cc(O[C@@H]4O[C@H](CO)[C@@H](O)[C@H](O)[C@H]4O)cc3o2)ccc1O [Chrysoeriol-7-O-glucosid] | 203.35 ± 6.33 ^f mg TE/g | 46.64 ± 1.24 ^d μg/mL | 39.8 ± 1.05 µM | – | 8.22 ± 0.84 ^g mg EDTAE/g | 495.51 ± 6.64 ^d mg TE/g | 848.23 ± 143.61 ^e μM | – | – | 1860 ± 20 µM | –
O=c1cc(-c2ccc(O)c(O)c2)oc2cc(OC3OC(CO)C(O)C(O)C3OC3OCC(O)(CO)C3O)cc(O)c12 (stereo not drawn) [Graveobioside A] | 882.04 ± 0.43 ^b mg TE/g | 6.88 ± 0.05 ^h μg/mL | 104 ± 5.75 µM | – | 89.98 ± 0.42 ^a mg EDTAE/g | 887.17 ± 8.95 ^c mg TE/g | 12.47 ± 0.08 ^h μM | – | – | – | –
COc1cc(-c2cc(=O)c3c(O)cc(OC4OC(CO)C(O)C(O)C4OC4OCC(O)(CO)C4O)cc3o2)ccc1O (stereo not drawn) [Graveobioside B] | 166.87 ± 2.97 ^g mg TE/g | 29.43 ± 1.33 ^e μg/mL | 104 ± 1.85 µM | – | 21.32 ± 1.51 ^e mg EDTAE/g | 328.10 ± 14.10 ^e mg TE/g | 3266.33 ± 365.08 ^c μM | – | – | – | –
O=c1cc(-c2ccc(O)cc2)oc2cc(O[C@@H]3O[C@H](CO)[C@@H](O)[C@H](O)[C@H]3O)cc(O)c12 [Apigenin-7-O-Glucoside] | 25.90 ± 0.49 ^i mg TE/g | 461.00 ± 11.04 ^b μg/mL | 77.5 ± 4.84 µM | – | 5.69 ± 0.19 ^h mg EDTAE/g | 33.45 ± 0.51 ^g mg TE/g | 4885.33 ± 56.01 ^b μM | – | – | 1740 ± 40 µM | –
O=c1cc(-c2ccc(O)cc2)oc2cc(O[C@@H]3O[C@H](CO)[C@@H](O)[C@H](O)[C@H]3O[C@@H]3OC[C@](O)(CO)[C@H]3O)cc(O)c12 [Apiin] | 5.97 ± 1.49 ^j mg TE/g | 1055.33 ± 24.68 ^a μg/mL | 199 ± 14.9 µM | – | 17.15 ± 1.37 ^f mg EDTAE/g | 25.26 ± 0.18 ^g mg TE/g | 7686.33 ± 200.18 ^a μM | – | – | – | 1084 µg/mL
COc1cc(-c2cc(=O)c3c(O)cc(O)cc3o2)ccc1O [Chrysoeriol] | 337.96 ± 0.88 ^e mg TE/g | 16.69 ± 0.55 ^f μg/mL | – | 36.49 mg EDTA/g | 36.49 ± 0.22 ^d mg EDTAE/g | 947.43 ± 5.72 ^b mg TE/g | 580.10 ± 35.54 ^f μM | – | – | – | –
O=c1cc(-c2ccc(O)c(O)c2)oc2cc(O[C@@H]3O[C@H](CO)[C@@H](O)[C@H](O)[C@H]3O)cc(O)c12 [Luteolin-7-O-glucoside] | 830.71 ± 8.52 ^c mg TE/g | 9.41 ± 0.42 ^g μg/mL | 49.9 ± 2.85 µM | – | 8.51 ± 0.21 ^g mg EDTAE/g | 955.05 ± 3.64 ^b mg TE/g | 9.28 ± 0.06 ^i μM | – | – | – | –
O=C1O[C@H]([C@@H](O)CO)C(O)=C1O [VC, ascorbic acid, reference compound] | – | 3.79 ± 0.04 ^j μg/mL | – | – | – | – | 5.32 ± 0.11 ^j μM | 406.39 ± 4.65 ^d mg TE/g | 5.72 ± 0.10 ^l μg/mL | – | –
